# Tests used:
# [1] = target: T1, Mitogen-activated protein kinase kinase kinase 5 (Homo sapiens) (UniProt Q99683); experiment: Selectivity interaction (KinomeScan (DiscoverX)) EUB0000318b MAP3K5; details: at 1 µM
# T1 sequence (whole entry): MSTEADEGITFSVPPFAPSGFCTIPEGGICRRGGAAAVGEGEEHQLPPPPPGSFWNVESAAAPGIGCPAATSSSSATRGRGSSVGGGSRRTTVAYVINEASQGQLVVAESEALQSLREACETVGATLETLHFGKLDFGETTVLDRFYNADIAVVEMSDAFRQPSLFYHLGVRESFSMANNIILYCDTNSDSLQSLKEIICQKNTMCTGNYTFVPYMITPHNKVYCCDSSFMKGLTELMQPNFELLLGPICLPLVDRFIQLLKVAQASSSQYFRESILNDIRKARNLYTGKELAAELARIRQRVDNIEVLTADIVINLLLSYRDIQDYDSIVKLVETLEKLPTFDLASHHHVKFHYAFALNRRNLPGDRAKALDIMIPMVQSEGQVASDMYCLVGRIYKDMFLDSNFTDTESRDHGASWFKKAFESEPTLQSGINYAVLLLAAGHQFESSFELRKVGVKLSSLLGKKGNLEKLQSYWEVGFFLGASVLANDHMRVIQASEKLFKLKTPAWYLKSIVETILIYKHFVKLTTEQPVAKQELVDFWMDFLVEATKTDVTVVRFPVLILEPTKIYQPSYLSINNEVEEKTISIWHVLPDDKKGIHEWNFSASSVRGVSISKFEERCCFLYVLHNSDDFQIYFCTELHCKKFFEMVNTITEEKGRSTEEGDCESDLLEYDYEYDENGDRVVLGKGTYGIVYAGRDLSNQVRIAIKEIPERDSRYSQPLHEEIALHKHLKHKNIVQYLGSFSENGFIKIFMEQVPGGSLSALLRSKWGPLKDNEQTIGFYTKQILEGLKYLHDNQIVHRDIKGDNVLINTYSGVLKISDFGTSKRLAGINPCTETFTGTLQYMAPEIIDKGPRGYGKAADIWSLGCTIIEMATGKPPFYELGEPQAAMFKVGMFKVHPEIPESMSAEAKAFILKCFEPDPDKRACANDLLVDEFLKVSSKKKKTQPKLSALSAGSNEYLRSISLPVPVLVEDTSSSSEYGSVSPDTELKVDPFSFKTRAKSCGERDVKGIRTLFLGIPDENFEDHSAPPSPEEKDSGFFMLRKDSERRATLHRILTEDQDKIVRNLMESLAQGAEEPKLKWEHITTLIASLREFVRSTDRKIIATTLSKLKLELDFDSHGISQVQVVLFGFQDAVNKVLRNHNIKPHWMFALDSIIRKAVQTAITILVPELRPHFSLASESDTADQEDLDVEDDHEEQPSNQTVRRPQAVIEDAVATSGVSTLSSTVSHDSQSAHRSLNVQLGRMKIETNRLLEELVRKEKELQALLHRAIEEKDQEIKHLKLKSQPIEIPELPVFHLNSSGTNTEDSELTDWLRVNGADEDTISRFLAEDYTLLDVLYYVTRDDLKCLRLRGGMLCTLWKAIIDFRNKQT
# [2] = target: 5-hydroxytryptamine receptor 2A (Homo sapiens, UniProt P28223); experiment: Selectivity interaction (CEREP selectivity screen) EUB0000318b HTR2A; details: at 10 µM
# [3] = target: T2, 4-aminobutyrate aminotransferase, mitochondrial (Homo sapiens, UniProt P80404); experiment: (§1) Selectivity interaction (GPCR panel (PDSP screen)) EUB0000318b ABAT; details: at 10 µM
# [4] = target: Sodium-dependent noradrenaline transporter (Homo sapiens, UniProt P23975); experiment: Selectivity interaction (CEREP selectivity screen) EUB0000318b SLC6A2; details: at 10 µM
# [5] = target: Sodium channel regulatory subunit beta-1 (Homo sapiens) (UniProt Q07699); experiment: Selectivity interaction (CEREP selectivity screen) EUB0000318b SCN1B; details: at 10 µM
# [6] = target: T3, Serine/threonine-protein kinase Nek1 (Homo sapiens) (UniProt Q96PY6); experiment: Selectivity interaction (KinomeScan (DiscoverX)) EUB0000318b NEK1; details: at 1 µM
# T3 sequence (whole entry): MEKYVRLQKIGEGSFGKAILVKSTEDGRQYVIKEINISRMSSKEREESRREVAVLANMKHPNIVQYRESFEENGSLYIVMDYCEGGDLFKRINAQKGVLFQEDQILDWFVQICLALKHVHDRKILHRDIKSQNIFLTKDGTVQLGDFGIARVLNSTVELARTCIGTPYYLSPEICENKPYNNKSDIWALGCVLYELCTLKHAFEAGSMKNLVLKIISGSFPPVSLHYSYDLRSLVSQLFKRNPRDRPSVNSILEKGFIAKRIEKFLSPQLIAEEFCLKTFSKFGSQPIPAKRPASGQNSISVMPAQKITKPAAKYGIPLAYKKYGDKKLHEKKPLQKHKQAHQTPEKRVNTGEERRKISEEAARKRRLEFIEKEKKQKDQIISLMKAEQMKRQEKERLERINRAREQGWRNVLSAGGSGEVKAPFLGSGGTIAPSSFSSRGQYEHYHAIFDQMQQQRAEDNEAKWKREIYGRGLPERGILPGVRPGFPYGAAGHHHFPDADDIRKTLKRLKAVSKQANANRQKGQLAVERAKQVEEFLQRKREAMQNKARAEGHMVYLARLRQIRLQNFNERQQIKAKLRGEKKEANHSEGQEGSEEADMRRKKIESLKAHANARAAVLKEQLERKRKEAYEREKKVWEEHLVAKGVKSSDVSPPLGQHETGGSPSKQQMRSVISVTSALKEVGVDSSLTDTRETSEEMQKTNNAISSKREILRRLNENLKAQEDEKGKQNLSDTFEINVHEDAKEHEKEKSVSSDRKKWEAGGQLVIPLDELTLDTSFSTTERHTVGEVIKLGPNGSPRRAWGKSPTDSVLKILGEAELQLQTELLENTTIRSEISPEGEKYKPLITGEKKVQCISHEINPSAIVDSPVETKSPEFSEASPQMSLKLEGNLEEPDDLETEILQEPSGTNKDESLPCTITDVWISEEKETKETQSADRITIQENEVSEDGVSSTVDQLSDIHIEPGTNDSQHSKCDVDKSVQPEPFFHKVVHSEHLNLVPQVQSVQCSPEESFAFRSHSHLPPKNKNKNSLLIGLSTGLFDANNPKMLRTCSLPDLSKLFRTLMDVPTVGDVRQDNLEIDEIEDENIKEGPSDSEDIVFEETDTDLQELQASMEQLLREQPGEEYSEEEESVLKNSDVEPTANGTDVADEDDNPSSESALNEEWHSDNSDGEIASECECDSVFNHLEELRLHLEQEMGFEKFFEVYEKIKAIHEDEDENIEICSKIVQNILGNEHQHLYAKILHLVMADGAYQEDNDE
# [7] = target: T2, 4-aminobutyrate aminotransferase, mitochondrial; experiment: as §1
# [8] = target: Voltage-dependent L-type calcium channel subunit alpha-1C (Homo sapiens, UniProt Q13936); experiment: Selectivity interaction (CEREP selectivity screen) EUB0000318b CACNA1C; details: at 10 µM
# [9] = target: Sigma non-opioid intracellular receptor 1 (Homo sapiens) (UniProt Q99720); experiment: Selectivity interaction (GPCR panel (PDSP screen)) EUB0000318b SIGMAR1; details: at 10 µM
# [10] = target: T4, Mitogen-activated protein kinase 14 (Homo sapiens, UniProt Q16539); experiment: (§2) Selectivity interaction (Kinase panel (Invitrogen, enzymatic assay)) EUB0000623aCl MAPK14
# [11] = target: Cyclin-dependent kinase 2 (Homo sapiens, UniProt P24941); experiment: Selectivity interaction (Kinase panel (Invitrogen, enzymatic assay)) EUB0000623aCl CDK2
# [12] = target: T4, Mitogen-activated protein kinase 14; experiment: as §2; remark: listed apart in the source
# [13] = target: Glycogen synthase kinase-3 beta (Homo sapiens, UniProt P49841); experiment: Selectivity interaction (Kinase panel (Invitrogen, enzymatic assay)) EUB0000623aCl GSK3B
# [14] = target: Mitogen-activated protein kinase 3 (Homo sapiens, UniProt P27361); experiment: Selectivity interaction (Kinase panel (Invitrogen, enzymatic assay)) EUB0000623aCl MAPK3
# [15] = target: Receptor tyrosine-protein kinase erbB-4 (Homo sapiens, UniProt Q15303); experiment: Selectivity interaction (Kinase panel (Invitrogen, enzymatic assay)) EUB0000623aCl ERBB4
# [16] = target: Mitogen-activated protein kinase kinase kinase 1 (Homo sapiens, UniProt Q13233); experiment: Selectivity interaction (Kinase panel (Invitrogen, enzymatic assay)) EUB0000623aCl MAP3K1
# [17] = target: Inhibitor of nuclear factor kappa-B kinase subunit beta (Homo sapiens, UniProt O14920); experiment: Selectivity interaction (Kinase panel (Invitrogen, enzymatic assay)) EUB0000623aCl IKBKB
# [18] = target: Epidermal growth factor receptor (Homo sapiens, UniProt P00533); experiment: Selectivity interaction (Kinase panel (Invitrogen, enzymatic assay)) EUB0000623aCl EGFR
# Ephrin type-A receptor 3 = Ephrin type-A receptor 3 (Homo sapiens, UniProt P29320); experiment: Selectivity interaction (Kinase panel (Invitrogen, enzymatic assay)) EUB0000623aCl EPHA3
# [19] = target: Protein kinase C theta type (Homo sapiens, UniProt Q04759); experiment: Selectivity interaction (Kinase panel (Invitrogen, enzymatic assay)) EUB0000623aCl PRKCQ
# [20] = target: Macrophage-stimulating protein receptor (Homo sapiens, UniProt Q04912); experiment: Selectivity interaction (Kinase panel (Invitrogen, enzymatic assay)) EUB0000623aCl MST1R
# [21] = target: Mitogen-activated protein kinase kinase kinase 7 (Homo sapiens, UniProt O43318); experiment: Selectivity interaction (Kinase panel (Invitrogen, enzymatic assay)) EUB0000623aCl MAP3K7
# [22] = target: Mitogen-activated protein kinase 8 (Homo sapiens, UniProt P45983); experiment: Selectivity interaction (Kinase panel (Invitrogen, enzymatic assay)) EUB0000623aCl MAPK8
# Sequence of Mitogen-activated protein kinase 8 (P45983 whole entry): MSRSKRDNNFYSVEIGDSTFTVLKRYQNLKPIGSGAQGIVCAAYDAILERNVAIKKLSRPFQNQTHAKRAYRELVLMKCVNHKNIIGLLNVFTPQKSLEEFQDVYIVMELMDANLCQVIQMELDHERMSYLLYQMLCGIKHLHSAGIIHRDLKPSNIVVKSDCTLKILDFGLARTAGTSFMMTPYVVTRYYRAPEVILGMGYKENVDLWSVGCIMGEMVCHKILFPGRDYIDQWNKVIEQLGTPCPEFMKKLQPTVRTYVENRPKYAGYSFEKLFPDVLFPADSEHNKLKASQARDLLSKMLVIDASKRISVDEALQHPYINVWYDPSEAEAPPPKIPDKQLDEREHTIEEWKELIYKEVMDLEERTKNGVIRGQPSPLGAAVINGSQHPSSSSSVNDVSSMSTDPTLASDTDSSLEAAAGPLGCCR
# T2 sequence (P80404 whole entry): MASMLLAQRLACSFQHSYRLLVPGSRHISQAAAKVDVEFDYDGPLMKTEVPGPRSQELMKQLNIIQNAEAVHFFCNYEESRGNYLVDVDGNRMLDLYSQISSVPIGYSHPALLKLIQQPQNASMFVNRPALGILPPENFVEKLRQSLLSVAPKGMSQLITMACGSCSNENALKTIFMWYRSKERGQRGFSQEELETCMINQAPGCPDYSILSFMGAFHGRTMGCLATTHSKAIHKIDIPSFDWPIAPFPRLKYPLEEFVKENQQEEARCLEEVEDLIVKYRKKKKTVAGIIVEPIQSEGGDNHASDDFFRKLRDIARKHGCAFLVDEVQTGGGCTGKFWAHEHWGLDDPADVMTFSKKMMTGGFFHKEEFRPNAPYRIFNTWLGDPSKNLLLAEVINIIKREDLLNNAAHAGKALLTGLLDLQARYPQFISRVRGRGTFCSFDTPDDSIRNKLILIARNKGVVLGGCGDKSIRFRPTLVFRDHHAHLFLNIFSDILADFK
# T4 sequence (Q16539 whole entry): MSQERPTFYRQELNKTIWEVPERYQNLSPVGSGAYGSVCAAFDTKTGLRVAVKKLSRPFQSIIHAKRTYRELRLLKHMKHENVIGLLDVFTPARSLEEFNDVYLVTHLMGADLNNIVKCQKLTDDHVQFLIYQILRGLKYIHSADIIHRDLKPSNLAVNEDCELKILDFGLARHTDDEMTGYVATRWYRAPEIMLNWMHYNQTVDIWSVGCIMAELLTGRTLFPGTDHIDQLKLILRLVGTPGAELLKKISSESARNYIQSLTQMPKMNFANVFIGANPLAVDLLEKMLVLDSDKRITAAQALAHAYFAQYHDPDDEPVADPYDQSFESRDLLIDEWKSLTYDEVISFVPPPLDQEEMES
# Sequence of Sigma non-opioid intracellular receptor 1 (Homo sapiens) (Q99720 whole entry): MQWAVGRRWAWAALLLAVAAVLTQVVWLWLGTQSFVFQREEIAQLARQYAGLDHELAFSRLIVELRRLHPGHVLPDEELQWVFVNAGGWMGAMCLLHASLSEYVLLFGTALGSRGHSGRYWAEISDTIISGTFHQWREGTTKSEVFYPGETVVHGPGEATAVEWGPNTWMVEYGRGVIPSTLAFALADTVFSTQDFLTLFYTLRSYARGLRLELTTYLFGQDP
# Sequence of Inhibitor of nuclear factor kappa-B kinase subunit beta (O14920 whole entry): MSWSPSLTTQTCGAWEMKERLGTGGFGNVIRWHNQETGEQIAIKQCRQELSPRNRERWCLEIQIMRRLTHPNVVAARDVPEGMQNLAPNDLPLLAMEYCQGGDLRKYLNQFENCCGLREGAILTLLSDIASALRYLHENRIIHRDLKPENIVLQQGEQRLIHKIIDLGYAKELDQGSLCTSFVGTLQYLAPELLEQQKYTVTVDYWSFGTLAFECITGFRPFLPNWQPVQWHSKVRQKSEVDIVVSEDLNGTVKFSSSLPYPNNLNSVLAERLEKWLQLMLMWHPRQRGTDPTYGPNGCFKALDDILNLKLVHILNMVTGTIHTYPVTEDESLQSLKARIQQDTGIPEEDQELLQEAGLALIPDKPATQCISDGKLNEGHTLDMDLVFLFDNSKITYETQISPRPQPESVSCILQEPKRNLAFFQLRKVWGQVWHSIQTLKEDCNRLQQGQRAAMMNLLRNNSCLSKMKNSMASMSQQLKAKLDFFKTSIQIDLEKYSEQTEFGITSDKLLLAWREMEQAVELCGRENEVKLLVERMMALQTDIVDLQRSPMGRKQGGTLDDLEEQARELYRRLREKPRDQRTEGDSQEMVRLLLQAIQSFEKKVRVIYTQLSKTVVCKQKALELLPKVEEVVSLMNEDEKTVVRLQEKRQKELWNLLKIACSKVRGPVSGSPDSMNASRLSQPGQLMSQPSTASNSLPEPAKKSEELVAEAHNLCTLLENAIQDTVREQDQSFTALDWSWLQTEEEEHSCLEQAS
# Sequence of Mitogen-activated protein kinase kinase kinase 1 (Q13233 whole entry): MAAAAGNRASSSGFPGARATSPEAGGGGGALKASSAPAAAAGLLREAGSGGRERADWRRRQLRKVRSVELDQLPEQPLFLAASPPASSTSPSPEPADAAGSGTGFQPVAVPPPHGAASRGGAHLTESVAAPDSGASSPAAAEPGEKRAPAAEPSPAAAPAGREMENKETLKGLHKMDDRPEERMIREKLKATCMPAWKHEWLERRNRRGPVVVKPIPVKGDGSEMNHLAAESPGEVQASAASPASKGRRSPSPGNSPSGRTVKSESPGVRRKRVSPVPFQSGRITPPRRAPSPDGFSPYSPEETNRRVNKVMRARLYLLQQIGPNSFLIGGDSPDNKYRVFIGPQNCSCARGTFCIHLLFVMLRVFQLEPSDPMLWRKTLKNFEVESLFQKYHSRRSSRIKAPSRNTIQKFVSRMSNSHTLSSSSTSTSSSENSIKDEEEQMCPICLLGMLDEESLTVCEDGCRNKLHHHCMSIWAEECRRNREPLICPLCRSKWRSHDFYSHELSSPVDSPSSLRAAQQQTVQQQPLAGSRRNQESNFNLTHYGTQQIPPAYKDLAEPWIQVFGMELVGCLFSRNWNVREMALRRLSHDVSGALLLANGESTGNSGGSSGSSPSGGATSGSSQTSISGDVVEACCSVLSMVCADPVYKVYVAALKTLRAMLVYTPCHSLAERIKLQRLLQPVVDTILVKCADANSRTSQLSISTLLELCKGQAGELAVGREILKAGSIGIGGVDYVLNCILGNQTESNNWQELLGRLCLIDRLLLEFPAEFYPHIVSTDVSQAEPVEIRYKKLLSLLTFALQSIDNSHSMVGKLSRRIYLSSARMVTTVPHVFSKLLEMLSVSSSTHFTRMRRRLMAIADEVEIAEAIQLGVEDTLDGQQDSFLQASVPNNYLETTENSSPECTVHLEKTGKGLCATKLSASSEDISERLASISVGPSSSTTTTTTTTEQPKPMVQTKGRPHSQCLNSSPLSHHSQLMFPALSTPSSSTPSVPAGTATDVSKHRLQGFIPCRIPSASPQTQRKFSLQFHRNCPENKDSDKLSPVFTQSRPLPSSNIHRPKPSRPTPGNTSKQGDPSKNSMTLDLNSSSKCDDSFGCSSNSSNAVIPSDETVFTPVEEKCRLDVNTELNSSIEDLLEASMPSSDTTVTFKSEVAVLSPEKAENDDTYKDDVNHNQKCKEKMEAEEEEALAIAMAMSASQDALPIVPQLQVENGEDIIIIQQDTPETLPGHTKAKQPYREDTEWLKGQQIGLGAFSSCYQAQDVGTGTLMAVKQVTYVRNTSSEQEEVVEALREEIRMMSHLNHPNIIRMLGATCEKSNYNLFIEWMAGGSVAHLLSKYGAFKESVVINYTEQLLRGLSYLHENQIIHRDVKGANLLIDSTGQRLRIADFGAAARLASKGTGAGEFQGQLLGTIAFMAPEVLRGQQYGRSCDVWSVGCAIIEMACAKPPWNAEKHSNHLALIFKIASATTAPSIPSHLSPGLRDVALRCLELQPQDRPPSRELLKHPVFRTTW
# Sequence of Sodium-dependent noradrenaline transporter (P23975 whole entry): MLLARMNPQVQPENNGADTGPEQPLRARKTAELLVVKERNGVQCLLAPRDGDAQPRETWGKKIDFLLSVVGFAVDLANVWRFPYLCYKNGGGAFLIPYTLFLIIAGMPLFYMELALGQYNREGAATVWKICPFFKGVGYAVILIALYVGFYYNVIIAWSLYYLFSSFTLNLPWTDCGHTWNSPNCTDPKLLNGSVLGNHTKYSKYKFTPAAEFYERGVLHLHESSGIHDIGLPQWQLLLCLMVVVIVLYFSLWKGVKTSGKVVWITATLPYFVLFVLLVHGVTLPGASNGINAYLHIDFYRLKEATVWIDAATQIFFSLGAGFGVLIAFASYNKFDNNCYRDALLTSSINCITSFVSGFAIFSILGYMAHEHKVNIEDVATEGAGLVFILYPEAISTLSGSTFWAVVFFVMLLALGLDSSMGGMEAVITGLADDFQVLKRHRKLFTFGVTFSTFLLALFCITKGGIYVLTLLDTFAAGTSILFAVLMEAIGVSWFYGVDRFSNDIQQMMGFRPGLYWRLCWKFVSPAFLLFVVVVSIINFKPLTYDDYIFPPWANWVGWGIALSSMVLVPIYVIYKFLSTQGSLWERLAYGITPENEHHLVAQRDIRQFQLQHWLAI
# Sequence of Mitogen-activated protein kinase 3 (P27361 whole entry): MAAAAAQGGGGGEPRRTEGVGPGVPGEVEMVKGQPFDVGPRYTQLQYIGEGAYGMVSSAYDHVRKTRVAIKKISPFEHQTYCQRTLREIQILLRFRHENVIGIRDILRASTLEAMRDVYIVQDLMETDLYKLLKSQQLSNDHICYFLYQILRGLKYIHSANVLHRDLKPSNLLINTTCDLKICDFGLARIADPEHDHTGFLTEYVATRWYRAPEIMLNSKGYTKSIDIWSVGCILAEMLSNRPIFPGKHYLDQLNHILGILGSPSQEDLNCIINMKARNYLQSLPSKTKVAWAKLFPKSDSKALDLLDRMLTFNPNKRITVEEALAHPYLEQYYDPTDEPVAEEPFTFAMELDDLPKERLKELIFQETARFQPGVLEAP
# Sequence of Sodium channel regulatory subunit beta-1 (Homo sapiens) (Q07699 whole entry): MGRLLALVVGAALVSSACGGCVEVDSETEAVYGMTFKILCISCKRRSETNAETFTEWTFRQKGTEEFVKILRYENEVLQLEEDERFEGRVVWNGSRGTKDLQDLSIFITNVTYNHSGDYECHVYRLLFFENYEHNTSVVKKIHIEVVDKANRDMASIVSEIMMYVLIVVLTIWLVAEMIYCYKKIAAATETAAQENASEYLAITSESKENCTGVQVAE
compound,measurement,setting,value
O=C(NC[C@@H]1[C@H]2CN(C(=O)OCc3cc(C(F)(F)F)cc(C(F)(F)F)c3)C[C@@H]12)c1ccc2[nH]nnc2c1 [BI 2545],% of control,[1],13%
same,% of inhibition,[2],55%
same,% of inhibition,[3],63.7%
same,% of inhibition,[4],61%
same,% of inhibition,[5],66%
same,% of control,[6],44%
same,Ki,[7],2.56 µM
same,% of inhibition,[8],80%
same,% of inhibition,[9],51.2%
CC(C)(C)c1ccc(C(=O)Nc2cn3cc(-n4ccnc4)ccc3n2)cc1,IC50,[10],> 10 µM
same,IC50,[11],0.158 µM
same,IC50,[12],> 20 µM
same,IC50,[13],> 10 µM
same,IC50,[14],> 10 µM
same,IC50,[15],> 20 µM
same,IC50,[16],> 10 µM
same,IC50,[17],> 10 µM
same,IC50,[18],> 20 µM
same,IC50,Ephrin type-A receptor 3,> 20 µM
same,IC50,[19],> 10 µM
same,IC50,[20],> 20 µM
same,IC50,[21],> 10 µM
same,IC50,[22],> 10 µM
